{
  "source": "ChEMBL document CHEMBL1201862",
  "about": "“PubChem BioAssay data set” (2004)",
  "experiment_in_all_cases": "NCI anticancer screen, dose series, 48 h",
  "key": {"[1]": {"system": "786-0"}, "[2]": {"system": "A549"}, "[3]": {"system": "ACHN"}, "[4]": {"system": "CAKI-1"}, "[5]": {"system": "CCRF-CEM"}, "[6]": {"system": "COLO 205"}, "[7]": {"system": "DLD-1"}, "[8]": {"system": "DMS-114"}, "[9]": {"system": "DMS-273"}, "[10]": {"system": "DU-145"}, "[11]": {"system": "EKVX"}, "[12]": {"system": "HCC 2998"}, "[13]": {"system": "HCT-116"}, "[14]": {"system": "HCT-15"}, "[15]": {"system": "HL-60"}, "[16]": {"system": "HOP-18"}, "[17]": {"system": "HOP-62"}, "[18]": {"system": "HOP-92"}, "[19]": {"system": "HT-29"}, "[20]": {"system": "Hs-578T"}, "[21]": {"system": "IGROV-1"}, "[22]": {"system": "K562"}, "[23]": {"system": "KM-20L2"}, "[24]": {"system": "KM12"}, "[25]": {"system": "LOX IMVI"}, "[26]": {"system": "LXFL 529"}, "[27]": {"system": "M14"}, "[28]": {"system": "M19-MEL"}, "[29]": {"system": "MCF7"}, "[30]": {"system": "MDA-MB-231"}, "[31]": {"system": "MDA-MB-435"}, "[32]": {"system": "MDA-N"}, "[33]": {"system": "MOLT-4"}, "[34]": {"system": "Malme-3M"}, "[35]": {"system": "NCI-H226"}, "[36]": {"system": "NCI-H23"}, "[37]": {"system": "NCI-H460"}, "[38]": {"system": "NCI-H522"}, "[39]": {"system": "OVCAR-3"}, "[40]": {"system": "OVCAR-4"}, "[41]": {"system": "OVCAR-5"}, "[42]": {"system": "OVCAR-8"}, "[43]": {"system": "PC-3"}, "[44]": {"system": "RPMI-8226"}, "[45]": {"system": "RXF 393"}, "[46]": {"system": "SF-268"}, "[47]": {"system": "SF-295"}, "[48]": {"system": "SF-539"}, "[49]": {"system": "SK-MEL-28"}, "[50]": {"system": "SK-MEL-2"}, "[51]": {"system": "SK-MEL-5"}, "[52]": {"system": "SK-OV-3"}, "[53]": {"system": "SN12C"}, "[54]": {"system": "SNB-19"}, "[55]": {"system": "SNB-75"}, "[56]": {"system": "SNB-78"}, "[57]": {"system": "SR"}, "[58]": {"system": "SW-620"}, "[59]": {"system": "T47D"}, "[60]": {"system": "TK-10"}, "[61]": {"system": "U-251"}, "[62]": {"system": "UACC-257"}, "[63]": {"system": "UACC-62"}, "[64]": {"system": "UO-31"}, "[65]": {"system": "XF498"}},
  "note": "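Exposure lasted 48 hours, with cells grown in 96-well plates and compounds tested at five concentrations. GI50 = concentration required for 50% inhibition of growth.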 The source made the active and inactive calls. Cut-off read from the data, not from the text of the source: active = GI50 up to about 1.1 µM and inactive = higher.",
  "data": [
    {"smiles": "CO/C1=C\\C(C)=C\\C(C)C(O)C(C)C/C(C)=C/C=C/C(OC)C(C(C)C(O)C(C)C2(O)CC(O)C(C)C(C(C)C)O2)OC1=O", "note": "(stereo not given)", "values": [
      {"measurement": "GI50", "setting": "[1]", "value": "3.31 nM (active)"},
      {"measurement": "GI50", "setting": "[2]", "value": "1.01 nM (active)"},
      {"measurement": "GI50", "setting": "[3]", "value": "14.8 nM (active)"},
      {"measurement": "GI50", "setting": "[4]", "value": "2.05 nM (active)"},
      {"measurement": "GI50", "setting": "[5]", "value": "1.19 nM (active)"},
      {"measurement": "GI50", "setting": "[6]", "value": "3.43 nM (active)"},
      {"measurement": "GI50", "setting": "[7]", "value": "0.0705 nM (active)"},
      {"measurement": "GI50", "setting": "[8]", "value": "4.58 nM (active)"},
      {"measurement": "GI50", "setting": "[9]", "value": "0.261 nM (active)"},
      {"measurement": "GI50", "setting": "[10]", "value": "0.873 nM (active)"},
      {"measurement": "GI50", "setting": "[11]", "value": "56.6 nM (active)"},
      {"measurement": "GI50", "setting": "[12]", "value": "0.757 nM (active)"},
      {"measurement": "GI50", "setting": "[13]", "value": "0.382 nM (active)"},
      {"measurement": "GI50", "setting": "[14]", "value": 0.143, "unit": "nM"},
      {"measurement": "GI50", "setting": "[15]", "value": "0.134 nM (active)"},
      {"measurement": "GI50", "setting": "[16]", "value": "10100 nM (inactive)"},
      {"measurement": "GI50", "setting": "[17]", "value": "0.051 nM (active)"},
      {"measurement": "GI50", "setting": "[18]", "value": "0.41 nM (active)"},
      {"measurement": "GI50", "setting": "[19]", "value": "0.0664 nM (active)"},
      {"measurement": "GI50", "setting": "[20]", "value": "11 nM (active)"},
      {"measurement": "GI50", "setting": "[21]", "value": "2.23 nM (active)"},
      {"measurement": "GI50", "setting": "[22]", "value": "2.31 nM (active)"},
      {"measurement": "GI50", "setting": "[23]", "value": "0.0112 nM (active)"},
      {"measurement": "GI50", "setting": "[24]", "value": "0.351 nM (active)"},
      {"measurement": "GI50", "setting": "[25]", "value": "0.01 nM (active)"},
      {"measurement": "GI50", "setting": "[26]", "value": "0.323 nM (active)"},
      {"measurement": "GI50", "setting": "[27]", "value": "0.369 nM (active)"},
      {"measurement": "GI50", "setting": "[28]", "value": "3.74 nM (active)"},
      {"measurement": "GI50", "setting": "[29]", "value": "3.71 nM (active)"},
      {"measurement": "GI50", "setting": "[30]", "value": "0.382 nM (active)"},
      {"measurement": "GI50", "setting": "[31]", "value": "1.98 nM (active)"},
      {"measurement": "GI50", "setting": "[32]", "value": "1.82 nM (active)"},
      {"measurement": "GI50", "setting": "[33]", "value": "2.2 nM (active)"},
      {"measurement": "GI50", "setting": "[34]", "value": "11.9 nM (active)"},
      {"measurement": "GI50", "setting": "[35]", "value": "13.4 nM (active)"},
      {"measurement": "GI50", "setting": "[36]", "value": "2.67 nM (active)"},
      {"measurement": "GI50", "setting": "[37]", "value": "0.401 nM (active)"},
      {"measurement": "GI50", "setting": "[38]", "value": "1.12 nM (active)"},
      {"measurement": "GI50", "setting": "[39]", "value": "4.34 nM (active)"},
      {"measurement": "GI50", "setting": "[40]", "value": "10 nM (active)"},
      {"measurement": "GI50", "setting": "[41]", "value": "0.491 nM (active)"},
      {"measurement": "GI50", "setting": "[42]", "value": "1.64 nM (active)"},
      {"measurement": "GI50", "setting": "[43]", "value": "2.52 nM (active)"},
      {"measurement": "GI50", "setting": "[44]", "value": "1.51 nM (active)"},
      {"measurement": "GI50", "setting": "[45]", "value": "5.26 nM (active)"},
      {"measurement": "GI50", "setting": "[46]", "value": "5.19 nM (active)"},
      {"measurement": "GI50", "setting": "[47]", "value": "1.63 nM (active)"},
      {"measurement": "GI50", "setting": "[48]", "value": "1.93 nM (active)"},
      {"measurement": "GI50", "setting": "[49]", "value": "66.1 nM (active)"},
      {"measurement": "GI50", "setting": "[50]", "value": "4.53 nM (active)"},
      {"measurement": "GI50", "setting": "[51]", "value": "0.396 nM (active)"},
      {"measurement": "GI50", "setting": "[52]", "value": "684 nM (active)"},
      {"measurement": "GI50", "setting": "[53]", "value": "10 nM (active)"},
      {"measurement": "GI50", "setting": "[54]", "value": "10900 nM (inactive)"},
      {"measurement": "GI50", "setting": "[55]", "value": "8.57 nM (active)"},
      {"measurement": "GI50", "setting": "[56]", "value": "10200 nM (inactive)"},
      {"measurement": "GI50", "setting": "[57]", "value": "0.0908 nM (active)"},
      {"measurement": "GI50", "setting": "[58]", "value": "0.471 nM (active)"},
      {"measurement": "GI50", "setting": "[59]", "value": "2.97 nM (active)"},
      {"measurement": "GI50", "setting": "[60]", "value": "14500 nM (inactive)"},
      {"measurement": "GI50", "setting": "[61]", "value": "7.06 nM (active)"},
      {"measurement": "GI50", "setting": "[62]", "value": "6.34 nM (active)"},
      {"measurement": "GI50", "setting": "[63]", "value": "2.8 nM (active)"},
      {"measurement": "GI50", "setting": "[64]", "value": "2.78 nM (active)"},
      {"measurement": "GI50", "setting": "[65]", "value": "24.2 nM (active)"}
    ]}
  ]
}
